Activity calls are given as the source filed them. The calls are words filed in the database; no cut-off is given here.

The record followed here is ChEMBL document CHEMBL3044779, “The action of herbicides on fatty acid biosynthesis and elongation in barley and cucumber” (Pest Manag Sci, 2010).

In assay [1] the test system is Hordeum vulgare. The assay is described as follows: Inhibition of fatty acid synthesis in Hordeum vulgare (barley) using [14C]acetate assessed as reduction in [14C]-labeled 24C fatty acid level at 7 uM after 3 hr by liquid scintillation counting. The format is functional, organism-based.
Assay [2] deals with Cucumis sativus. The assay is described as follows: Inhibition of fatty acid synthesis in […] using [14C]acetate assessed as reduction in [14C]-labeled 22C fatty acid level at 7 uM after 3 hr by liquid scintillation counting. The format is functional, organism-based.
Assay [3] concerns Hordeum vulgare. The assay is described as follows: Inhibition of fatty acid synthesis in Hordeum vulgare (barley) using [14C]acetate assessed as reduction in [14C]-labeled 22C fatty acid level at 7 uM after 3 hr by liquid scintillation counting. Format: functional, organism-based.
Assay [4] relates to Cucumis sativus. The assay is described as follows: Inhibition of fatty acid synthesis in Cucumis sativus (cucumber) using [14C]acetate assessed as reduction in [14C]-labeled 20C fatty acid level at 7 uM after 3 hr by liquid scintillation counting relative to control. Format: functional, organism-based.
Assay [5] relates to Hordeum vulgare. Briefly: Inhibition of fatty acid synthesis in Hordeum vulgare (barley) using [14C]acetate assessed as [14C]-labeled 20C fatty acid level at 7 uM after 3 hr by liquid scintillation counting (reference value: 2.1 +/- 0.4%). Set-up: scale not given: the % may be the effect or the level left. The format is functional.
Assay [6] concerns Cucumis sativus. The assay is described as follows: Inhibition of fatty acid synthesis in Cucumis sativus (cucumber) using [14C]acetate assessed as [14C]-labeled 18C fatty acid level at 7 uM after 3 hr by liquid scintillation counting (reference value: 33.5 +/- 1.5%). Format: functional. More on the design: scale not given: the % may be the effect or the level left.
In assay [7] the test system is Hordeum vulgare. Briefly: Inhibition of fatty acid synthesis in Hordeum vulgare (barley) using [14C]acetate assessed as [14C]-labeled 18C fatty acid level at 7 uM after 3 hr by liquid scintillation counting (reference value: 57 +/- 0.9%). The format is functional. Set-up: scale not given: the % may be the effect or the level left.
Assay [8] has as its system Cucumis sativus. The assay is described as follows: Inhibition of fatty acid synthesis in Cucumis sativus (cucumber) using [14C]acetate assessed as [14C]-labeled 16C fatty acid level at 7 uM after 3 hr by liquid scintillation counting (reference value: 27.6 +/- 5.1%). The format is functional. Set-up: scale not given: the % may be the effect or the level left.
For assay [9], the system named is Hordeum vulgare. Briefly: Inhibition of fatty acid synthesis in Hordeum vulgare (barley) using [14C]acetate assessed as [14C]-labeled 16C fatty acid level at 7 uM after 3 hr by liquid scintillation counting (reference value: 30.6 +/- 0.2%). Format: functional. Set-up: scale not given: the % may be the effect or the level left.
For assay [10], the system named is Cucumis sativus. Briefly: Inhibition of fatty acid synthesis in Cucumis sativus (cucumber) assessed as inhibition of [14C]acetate incoporation in total fatty acids at 7 uM measured as total disintegration per g of fresh weight after 3 hr by liquid scintillation counting (reference value: 4.4 +/- 1 dpm x 10^6 g'1 fresh wt). The format is functional.
In assay [11] the test system is Hordeum vulgare. Briefly: Inhibition of fatty acid synthesis in Hordeum vulgare (barley) assessed as inhibition of [14C]acetate incoporation in total fatty acids at 7 uM measured as total disintegration per g of fresh weight after 3 hr by liquid scintillation counting (reference value: 5.8 +/- 1.6 dpm x 10^6 g'1 fresh wt). The format is functional.
In assay [12] the test system is Hordeum vulgare. The assay is described as follows: Inhibition of fatty acid synthesis in Hordeum vulgare (barley) assessed as inhibition of [14C]malonate incoporation in total fatty acids at 70 uM measured as total disintegration per g of fresh weight after 3 hr by liquid scintillation counting (reference value: 5.2 +/- 0.9 dpm x 10^6 g'1 fresh wt). The format is functional.

The test system of assay [13] is Hordeum vulgare. Briefly: Inhibition of fatty acid synthesis in Hordeum vulgare (barley) using [14C]malonate assessed as [14C]-labeled 18C fatty acid level at 70 uM after 3 hr by liquid scintillation counting (reference value: 14.4 +/- 6.3%). Format: functional. Set-up: scale not given: the % may be the effect or the level left.
For assay [14], the system named is Cucumis sativus. Briefly: Inhibition of fatty acid synthesis in Cucumis sativus (cucumber) using [14C]malonate assessed as [14C]-labeled 16C fatty acid level at 70 uM after 3 hr by liquid scintillation counting (reference value: 5.1 +/- 0.9%). The format is functional. Set-up: scale not given: the % may be the effect or the level left.
Assay [15] deals with Hordeum vulgare. The assay is described as follows: Inhibition of fatty acid synthesis in Hordeum vulgare (barley) using [14C]malonate assessed as [14C]-labeled 16C fatty acid level at 70 uM after 3 hr by liquid scintillation counting (reference value: 3.3 +/- 0.9%). More on the design: scale not given: the % may be the effect or the level left. Format: functional.
Assay [16] relates to Hordeum vulgare. Briefly: Inhibition of fatty acid synthesis in Hordeum vulgare (barley) using [14C]malonate assessed as reduction in [14C]-labeled 26C fatty acid level at 70 uM after 3 hr by liquid scintillation counting relative to control. Format: functional, organism-based.
Assay [17] relates to Cucumis sativus. Briefly: Inhibition of fatty acid synthesis in Cucumis sativus (cucumber) using [14C]malonate assessed as reduction in [14C]-labeled 24C fatty acid level at 70 uM after 3 hr by liquid scintillation counting relative to control. Format: functional, organism-based.
The subject of assay [18] is Hordeum vulgare. The assay is described as follows: Inhibition of fatty acid synthesis in Hordeum vulgare (barley) using [14C]malonate assessed as reduction in [14C]-labeled 24C fatty acid level at 70 uM after 3 hr by liquid scintillation counting relative to control. Format: functional, organism-based.
The test system of assay [19] is Cucumis sativus. The assay is described as follows: Inhibition of fatty acid synthesis in Cucumis sativus (cucumber) using [14C]malonate assessed as reduction in [14C]-labeled 22C fatty acid level at 70 uM after 3 hr by liquid scintillation counting relative to control. The format is functional, organism-based.
Assay [20] relates to Hordeum vulgare. The assay is described as follows: Inhibition of fatty acid synthesis in Hordeum vulgare (barley) using [14C]malonate assessed as [14C]-labeled 22C fatty acid level at 70 uM after 3 hr by liquid scintillation counting (reference value: 34.7 +/- 2.4%). The format is functional. More on the design: scale not given: the % may be the effect or the level left.
The subject of assay [21] is Cucumis sativus. Briefly: Inhibition of fatty acid synthesis in Cucumis sativus (cucumber) using [14C]malonate assessed as [14C]-labeled 20C fatty acid level at 70 uM after 3 hr by liquid scintillation counting (reference value: 11.7 +/- 2%). The format is functional. More on the design: scale not given: the % may be the effect or the level left.
In assay [22] the test system is Hordeum vulgare. The assay is described as follows: Inhibition of fatty acid synthesis in Hordeum vulgare (barley) using [14C]malonate assessed as reduction in [14C]-labeled 20C fatty acid level at 70 uM after 3 hr by liquid scintillation counting relative to control. The format is functional, organism-based.
The test system of assay [23] is Cucumis sativus. The assay is described as follows: Inhibition of fatty acid synthesis in Cucumis sativus (cucumber) using [14C]malonate assessed as [14C]-labeled 18C fatty acid level at 70 uM after 3 hr by liquid scintillation counting (reference value: 14.3 +/- 2%). Format: functional. More on the design: scale not given: the % may be the effect or the level left.

The subject of assay [24] is Cucumis sativus. The assay is described as follows: Inhibition of fatty acid synthesis in Cucumis sativus (cucumber) assessed as inhibition of [14C]malonate incoporation in total fatty acids at 70 uM measured as total disintegration per g of fresh weight after 3 hr by liquid scintillation counting (reference value: 16.3 +/- 1.1 dpm x 10^6 g'1 fresh wt). Format: functional.

In the case of `CCN(CC)C(=O)n1cnc(S(=O)(=O)c2c(C)cc(C)cc2C)n1` [CAFENSTROLE], the inhibition result in assay [1], in assay [2], in assay [3], in [4], in [16] and in [17] was “Active” each time. Also, the inhibition entry in assay [18], in assay [19] and in [22] was “Active” in each case. The Activity in assay [5] was 2.2%; in assay [6], 39.6%; in assay [7], 66.1%; in assay [8] it was 60.4%; in assay [9], 32.4%; in assay [10] it was 2.5 ×10⁶ dpm. In addition, the Activity in assay [11] was 5.1 ×10⁶ dpm; in assay [12] it was 2.7 ×10⁶ dpm; in assay [13], 65.4%; in [14] it was 20.4%; in assay [15] it was 10%; in assay [20] it was 14.7%. For the same compound, the Activity is reported as 8.4% in assay [21], 71.3% in assay [23] and 9.4 ×10⁶ dpm in assay [24].
